From article PMC8618934, “Synthesis, Crystal Structure, and Biological Evaluation of Novel 5-Hydroxymethylpyrimidines” (Materials, 2021)
≈ marks a conversion by molar mass, not a printed value.

Key:
[1] = system: HeLa; assay: Neutral red uptake assay, HeLa; format: cell-based; settings: Homo sapiens, 72 h incubation
Description: (§1) To all media (except for RPTEC), 2.5 µg mL^−1 amphotericin B, 100 U mL^−1 penicillin, and 100 µg mL^−1 streptomycin were added.
(§2) The cells were put in 96-well plates (1 × 10^5 cells per mL) of appropriate culture medium (100 µL per well). Before a general experiment, cells were attached for 24 h and then treated with various concentrations (500, 250, 100, and 10 µM) of pyrimidine derivatives and subsequently grown in 200 µL medium volume. […] The neutral red uptake assay was performed according to Repetto et al.. This method uses the ability of the living cells to accumulate dye in their lysosomes. […] Finally, the absorbance was measured at 540 nm using a Thermo Scientific™ Multiskan™ GO Microplate Spectrophotometer (Thermo Fisher).
(§3) The viability tests were conducted in quadruple wells (n = 4) for each condition. Values are presented as mean ± standard deviation (SD). Significant differences were calculated using one-way ANOVA, followed by post hoc comparison, and the half-maximal inhibitory concentration (IC50) was obtained by nonlinear regression using GraphPad Prism 9.1 for Windows, GraphPad Software, La Jolla, California, USA, www.graphpad.com.

[2] = system: Caco-2; assay: Neutral red uptake assay, Caco-2; format: cell-based; settings: Homo sapiens, 72 h incubation
Description: as §1, §2
as §3, with “www.graphpad.com. A p-value < 0.05 was considered statistically significant.” for “www.graphpad.com.”

[3] = system: HepaRG; assay: Neutral red uptake assay, HepaRG; format: cell-based, human; settings: 72 h incubation
Description: as §1, §2, §3

[4] = system: A172; assay: Neutral red uptake assay, A172; format: cell-based; settings: Homo sapiens, A 172, 72 h incubation
Description: as §1, §2, §3

[5] = system: AGS; assay: Neutral red uptake assay, AGS; format: cell-based; settings: Homo sapiens, 72 h incubation
Description: as §1, §2, §3

[6] = system: Acinetobacter baumannii; assay: Antimicrobial activity, broth microdilution MIC; format: cell-based; settings: tested 256 to 0.5 µg mL^−1, 24 h, '-' not defined, no MIC in tested range
[7] = system: Pseudomonas aeruginosa; assay: Antimicrobial activity, broth microdilution MIC; format: cell-based; settings: tested 256 to 0.5 µg mL^−1, 24 h, '-' not defined, no MIC in tested range, read-out: MIC P. aeruginosa
[8] = system: Enterococcus faecalis; assay: Antimicrobial activity, broth microdilution MIC; format: cell-based; settings: tested 256 to 0.5 µg mL^−1, 24 h, '-' not defined, no MIC in tested range, read-out: MIC E. faecalis
[9] = system: methicillin-resistant Staphylococcus aureus (MRSA); assay: Antimicrobial activity, broth microdilution MIC; format: cell-based; settings: tested 256 to 0.5 µg mL^−1, 24 h, '-' not defined, no MIC in tested range
[10] = system: Escherichia coli; assay: Antimicrobial activity, broth microdilution MIC; format: cell-based; settings: tested 256 to 0.5 µg mL^−1, 24 h, '-' not defined, no MIC in tested range
[11] = system: Klebsiella pneumoniae; assay: Antimicrobial activity, broth microdilution MIC; format: cell-based; settings: tested 256 to 0.5 µg mL^−1, 24 h, '-' not defined, no MIC in tested range, read-out: MIC K. pneumoniae
[12] = Neutral red uptake assay, viability of normal RPTEC cells; format: cell-based; settings: human, 72 h treatment, vs control with 1% DMSO = 100%, read-out: Viability of RPTEC cell line
Description: For cytotoxicity assays, the following cell lines were used: human renal proximal tubule epithelial cells (RPTEC-MTOX1030), epithelioid cervix carcinoma (HeLa-93021013), colon adenocarcinoma (Caco-2-86010202), hepatocarcinoma (HepaRG-MTOX1010), gastric adenocarcinoma (AGS-89090402), and glioblastoma (A172-88062428) cells were cultured in appropriate media according to the European Collection of Authenticated Cell Cultures (ECACC) recommendation. To all media (except for RPTEC), 2.5 µg mL^−1 amphotericin B, 100 U mL^−1 penicillin, and 100 µg mL^−1 streptomycin were added. In addition, the RPTEC cell line was cultured in media with 30 μg mL^−1 gentamicin and 15 ng mL^−1 amphotericin B. Cell cultures were incubated at 37 °C in a humidified atmosphere with 5% CO2 for at least three passages until performing experiments. All cell lines were grown in monolayers; thus, detachment with 0.25% trypsin solution was required for further assays.
The cells were put in 96-well plates (1 × 10^5 cells per mL) of appropriate culture medium (100 µL per well). Before a general experiment, cells were attached for 24 h and then treated with various concentrations (500, 250, 100, and 10 µM) of pyrimidine derivatives and subsequently grown in 200 µL medium volume. […]. The cells were incubated for 24, 48, and 72 h at 37 °C in a humidified 5% CO2/95% air incubator. The neutral red uptake assay was performed according to Repetto et al.. This method uses the ability of the living cells to accumulate dye in their lysosomes. Briefly, at the end of each incubation time the cells were treated with neutral red solution (40 µg mL^−1) for 2 h at 37 °C. Afterwards, the cells were washed with PBS, and the incorporated dye was solubilized with the extraction solution (50% ethanol, 49% H2O, 1% glacial acetic acid). The plates were gently shaken for 30 min at 37 °C. Finally, the absorbance was measured at 540 nm using a Thermo Scientific™ Multiskan™ GO Microplate Spectrophotometer (Thermo Fisher).
as §3, with “www.graphpad.com. A p-value < 0.05 was considered statistically significant. All results were compared with the control with 1% DMSO, which was considered to be 100%.” for “www.graphpad.com.”

[13] = system: normal human endothelial cells; design: method as in PMID 30284980; settings: cited from earlier work
[14] = system: cancer cell lines; design: method as in PMID 30284980; settings: range depending on the cancer cell line; cited from earlier work
[15] = system: Candida albicans; assay: Antimicrobial activity, broth microdilution MIC; format: cell-based; settings: tested 256 to 0.5 µg mL^−1, 24 h, '-' not defined, no MIC in tested range, read-out: MIC C. albicans

Structure (SMILES) | IC50 [1] | melting point | IC50 [2] | IC50 ([3]; Homo sapiens, HepaRG, 72 h) | IC50 [4] | IC50 [5] | other results
Cc1nc(-c2ccccc2)nc(NC(C)(C)C)c1CO [Compound 3h, [4-(tert-butylamino)-6-methyl-2-phenylpyrimidin-5-yl]methanol] | > 250 µM | 173 to 174 °C | > 250 µM | 132 µM | > 250 µM | > 250 µM | IC50 [3]: 132 µM; MIC [6]: 256 mg/L (≈ 943 µM)
C[C@H]1COc2c(N3CCN(C)CC3)c(F)cc3c(=O)c(C(=O)O)cn1c23 [Levofloxacin, reference compound] | – | – | – | – | – | – | MIC [7]: 1 mg/L (≈ 2.77 µM); MIC [8]: 4 mg/L (≈ 11.1 µM); MIC [9]: 1 mg/L (≈ 2.77 µM); MIC [6]: 0.5 mg/L (≈ 1.38 µM)
CNC(C)C1CCC(N)C(OC2C(N)CC(N)C(OC3OCC(C)(O)C(NC)C3O)C2O)O1 (stereo not drawn) [Gentamicin, reference compound] | – | – | – | – | – | – | MIC [10]: 2 mg/L (≈ 4.19 µM); MIC [11]: 2 mg/L (≈ 4.19 µM)
Cc1nc(-c2ccccc2)nc(N)c1CO [Compound 3c, (4-amino-6-methyl-2-phenylpyrimidin-5-yl)methanol] | > 250 µM | 177 to 178 °C | > 250 µM | > 250 µM | > 250 µM | > 250 µM | –
Cc1nc(-c2ccccc2)nc(NC2CCCCC2)c1CO [Compound 3j, [4-(cyclohexylamino)-6-methyl-2-phenylpyrimidin-5-yl]methanol] | – | 143 °C | – | – | – | – | viability at 72 h, 10 µM [12]: 89%; viability at 72 h, 100 µM [12]: 28%; viability at 72 h, 250 µM [12]: 70%; viability at 72 h, 500 µM [12]: 16%
Cc1nc(-c2ccccc2)nc(SCc2ccc(Cl)cc2)c1CO [5-hydroxymethyl derivative] | – | – | – | – | – | – | survival of normal human endothelial cells [13]: 1%; IC50 [14]: 17 to 38 µM
Cc1nc(-c2ccccc2)nc(NC(C)C)c1CO [Compound 3g, {4-methyl-2-phenyl-6-[(propan-2-yl)amino]pyrimidin-5-yl}methanol] | 209 µM | 160 °C | > 250 µM | 183 µM | 147 µM | > 250 µM | MIC [10]: 128 mg/L (≈ 497 µM); MIC [6]: 256 mg/L (≈ 995 µM)
Cc1nc(-c2ccccc2)nc(SCc2ccccc2)c1CO [Compound 3a, [4-(benzylsulfanyl)-6-methyl-2-phenylpyrimidin-5-yl]methanol] | > 250 µM | 144 to 145 °C | > 250 µM | 201 µM | > 250 µM | 209 µM | MIC [15]: 256 mg/L (≈ 794 µM)
Cc1nc(-c2ccccc2)nc(NCCO)c1CO [Compound 3i, 2-{[5-(hydroxymethyl)-6-methyl-2-phenylpyrimidin-4-yl]amino}ethan-1-ol] | > 250 µM | 141 °C | > 250 µM | > 250 µM | > 250 µM | > 250 µM | –
Cc1ccccc1CSc1nc(-c2ccccc2)nc(C)c1CO [Compound 3b, (4-methyl-6-{[(2-methylphenyl)methyl]sulfanyl}-2-phenylpyrimidin-5-yl)methanol] | – | 147 °C | – | – | – | – | viability at 72 h, 10 µM [12]: 91%; viability at 72 h, 100 µM [12]: 44%; viability at 72 h, 250 µM [12]: 46%; viability at 72 h, 500 µM [12]: 34%
CCCNc1nc(-c2ccccc2)nc(C)c1CO [Compound 3e, [4-methyl-2-phenyl-6-(propylamino)pyrimidin-5-yl]methanol] | > 250 µM | 158 to 159 °C | > 250 µM | > 250 µM | > 250 µM | > 250 µM | MIC [8]: 256 mg/L (≈ 995 µM); MIC [6]: 256 mg/L (≈ 995 µM)
Cc1nc(-c2ccccc2)nc(SCc2ccc(Cl)cc2)c1C [4-[(4-chlorobenzyl)sulfanyl]-5,6-dimethyl-2-phenylpyrimidine] | – | – | – | – | – | – | survival of normal human endothelial cells [13]: 58%
CCNc1nc(-c2ccccc2)nc(C)c1CO [Compound 3d, [4-(ethylamino)-6-methyl-2-phenylpyrimidin-5-yl]methanol] | > 250 µM | 191 °C | > 250 µM | > 250 µM | > 250 µM | > 250 µM | –
C=CCNc1nc(-c2ccccc2)nc(C)c1CO [Compound 3f, {4-methyl-2-phenyl-6-[(prop-2-en-1-yl)amino]pyrimidin-5-yl}methanol] | > 250 µM | 174 to 175 °C | > 250 µM | > 250 µM | > 250 µM | > 250 µM | MIC [9]: 256 mg/L (≈ 1000 µM)
